According to publication PMC11055700 (Chemicke Zvesti, 2024):
Where two headings read alike, the source gives them in different places.

Assays:
[1] = molecular target: T1, human PD-1 / human PD-L1 (Homo sapiens, UniProt Q15116+Q9NZQ7); test: AlphaScreen PD-1-PD-L1 binding assay; conditions: unrelated ligand-receptor pair
T1 construct: purchased Sino Biological

[2] = molecular target: T2, SARS-CoV-2 Spike-RBD (beta) / ACE2 (Homo sapiens, UniProt Q9BYF1); test: biochemical; format: binding
T2 construct: a SARS-CoV-2 RBD protein containing a C-terminal His tag; a full-length ACE2 peptide with a C-terminal Fc tag; purchased Sino Biological
T2 sequence (Q9BYF1 18-740): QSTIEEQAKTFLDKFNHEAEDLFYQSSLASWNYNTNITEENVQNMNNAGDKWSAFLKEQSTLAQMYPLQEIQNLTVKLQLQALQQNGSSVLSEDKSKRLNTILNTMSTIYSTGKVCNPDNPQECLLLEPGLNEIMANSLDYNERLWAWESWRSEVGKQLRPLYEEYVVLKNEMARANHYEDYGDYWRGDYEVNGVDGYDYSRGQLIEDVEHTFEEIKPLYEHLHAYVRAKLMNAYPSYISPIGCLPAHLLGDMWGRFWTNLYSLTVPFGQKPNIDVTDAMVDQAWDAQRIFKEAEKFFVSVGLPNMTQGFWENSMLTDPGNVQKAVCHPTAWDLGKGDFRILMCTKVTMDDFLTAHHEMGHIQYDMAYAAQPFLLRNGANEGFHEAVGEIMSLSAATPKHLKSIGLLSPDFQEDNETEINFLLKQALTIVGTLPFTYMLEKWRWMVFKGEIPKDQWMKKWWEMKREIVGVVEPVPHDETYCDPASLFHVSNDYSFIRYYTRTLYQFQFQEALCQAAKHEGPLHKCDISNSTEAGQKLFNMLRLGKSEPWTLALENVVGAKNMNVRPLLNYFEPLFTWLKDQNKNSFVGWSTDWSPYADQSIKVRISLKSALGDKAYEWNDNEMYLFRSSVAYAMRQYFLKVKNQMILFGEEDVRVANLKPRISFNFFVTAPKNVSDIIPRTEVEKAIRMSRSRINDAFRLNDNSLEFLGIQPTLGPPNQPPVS

[3] = molecular target: T3, SARS-CoV-2 Spike-RBD (ancestral, WT) / ACE2 (Homo sapiens, UniProt Q9BYF1); test: biochemical; format: binding; conditions: IC50 Spike/ACE2
T3 construct: a SARS-CoV-2 RBD protein containing a C-terminal His tag; a full-length ACE2 peptide with a C-terminal Fc tag; purchased Sino Biological
T3 sequence (Q9BYF1 18-740): as above

[4] = molecular target: T4, SARS-CoV-2 Spike-RBD (delta) / ACE2 (Homo sapiens, UniProt Q9BYF1); test: biochemical; format: binding
T4 construct: a SARS-CoV-2 RBD protein containing a C-terminal His tag; a full-length ACE2 peptide with a C-terminal Fc tag; purchased Sino Biological
T4 sequence (Q9BYF1 18-740): as above

[5] = molecular target: T5, SARS-CoV-2 Spike-RBD (omicron) / ACE2 (Homo sapiens, UniProt Q9BYF1); test: biochemical; format: binding
T5 construct: a SARS-CoV-2 RBD protein containing a C-terminal His tag; a full-length ACE2 peptide with a C-terminal Fc tag; purchased Sino Biological
T5 sequence (Q9BYF1 18-740, change not shown): as the sequence (Q9BYF1 18-740) above

[6] = molecular target: T6, SARS-CoV-2 Spike-RBD (lambda) / ACE2 (Homo sapiens, UniProt Q9BYF1); test: biochemical; format: binding
T6 construct: a SARS-CoV-2 RBD protein containing a C-terminal His tag; a full-length ACE2 peptide with a C-terminal Fc tag; purchased Sino Biological
T6 sequence (Q9BYF1 18-740): as above

T1 sequence (Q15116 25-167 limits assumed): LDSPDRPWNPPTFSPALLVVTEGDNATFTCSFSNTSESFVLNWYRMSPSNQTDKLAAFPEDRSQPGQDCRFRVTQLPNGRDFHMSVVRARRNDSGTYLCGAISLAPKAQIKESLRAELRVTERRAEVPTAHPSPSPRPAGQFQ
T1 sequence (Q9NZQ7 19-239 limits assumed): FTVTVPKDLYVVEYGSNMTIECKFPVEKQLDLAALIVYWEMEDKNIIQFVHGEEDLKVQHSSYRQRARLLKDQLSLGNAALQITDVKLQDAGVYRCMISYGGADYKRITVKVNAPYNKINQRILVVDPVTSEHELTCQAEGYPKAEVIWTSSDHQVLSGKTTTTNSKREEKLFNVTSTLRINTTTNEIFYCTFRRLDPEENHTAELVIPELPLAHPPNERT

## O=C1Nc2ccc(Cl)cc2C1=NNc1ccc([N+](=O)[O-])cc1[N+](=O)[O-] [H2L, 5-chloro-3-(2-(2,4-dinitrophenyl)hydrazono)indolin-2-one]
[1]
  IC50: 2060 nM
[2]
  IC50: 490 nM
[3]
  IC50: 260 nM
[4]
  IC50: 464 nM
[5]
  IC50: 615 nM
other
  melting point: > 350 °C
[6]
  IC50: 628 nM

## REGN10933
[2]
  fold weaker against the beta RBD: ~ 70 fold
[2]; read-out: IC50 spike RBD/ACE2 binding, Beta RBD sequence
  IC50: 90.9 nM
[4]; read-out: IC50 spike RBD/ACE2 binding, Delta RBD sequence
  IC50: 1.4 nM
[5]; read-out: IC50 spike RBD/ACE2 binding, Omicron RBD sequence
  IC50: > 700 nM
[6]; read-out: IC50 spike RBD/ACE2 binding, Lambda RBD sequence
  IC50: 0.8 nM
